According to PubChem BioAssay (NCI):
Values joined by “and” are separate entries in the source; they are usually repeats but may differ in a detail not shown here. Identical values can stand only once.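 1) Cells in 96-well plates. 2) Compound, 48 h, 5 concentrations. 3) Linear interpolation between surrounding doses. 4) Unreached endpoint = highest concentration. Abbreviation: GI50, concentration required for 50% inhibition of growth. The concentration for full growth arrest is given as TGI.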

Legend:
Experiment in all cases: NCI-60 cell line screen, 48 h
HOP-62 NSCLC = test system: HOP-62 NSCLC
NCI-H460 lung = test system: NCI-H460 lung
LOX IMVI melanoma = test system: LOX IMVI melanoma
COLO 205 colon = test system: COLO 205 colon
OVCAR-5 ovarian = test system: OVCAR-5 ovarian
IGROV1 ovarian = test system: IGROV1 ovarian
KM12 colon = test system: KM12 colon
RXF 393 renal = test system: RXF 393 renal
SK-MEL-2 melanoma = test system: SK-MEL-2 melanoma
NCI-H226 lung = test system: NCI-H226 lung
SK-MEL-28 melanoma = test system: SK-MEL-28 melanoma
PC-3 prostate = test system: PC-3 prostate
BT-549 breast = test system: BT-549 breast
MDA-N = test system: MDA-N
MDA-MB-435 = test system: MDA-MB-435
HS 578T breast = test system: HS 578T breast

| Structure (SMILES) | TGI (HOP-62 NSCLC) [µM] | TGI (NCI-H460 lung) [µM] | TGI (LOX IMVI melanoma) [µM] | TGI (COLO 205 colon) [µM] | TGI (OVCAR-5 ovarian) [µM] | TGI (IGROV1 ovarian) [µM] | TGI (KM12 colon) [µM] | TGI (RXF 393 renal) [µM] | TGI (SK-MEL-2 melanoma) [µM] | TGI (NCI-H226 lung) [µM] | TGI (SK-MEL-28 melanoma) [µM] | TGI (PC-3 prostate) [µM] | TGI (BT-549 breast) [µM] | TGI (MDA-N) [µM] | TGI (MDA-MB-435) [µM] | TGI (HS 578T breast) [µM] | GI50 (PC-3 prostate) | GI50 (COLO 205 colon) | GI50 (NCI-H226 lung) |
| --- | --- | --- | --- | --- | --- | --- | --- | --- | --- | --- | --- | --- | --- | --- | --- | --- | --- | --- | --- |
| Cc1[nH]c2ccccc2c1C(=O)CC1(O)C(=O)Nc2c(Cl)cc(Cl)cc21 (configuration not stated) | > 100 | > 100 | 72.5 | 61.7 | 52.1 | > 100 | > 100 | 39.2 | 81 | 42.7 | 62 | – | – | – | – | – | – | – | – |
| Cc1ccc2c(C3Cc4ccccc4N3C(=O)/C=C\C(=O)O)c(C)[nH]c2c1 (configuration not stated) | > 100 | > 100 | > 100 | 58.5 | > 100 | > 100 | > 100 | 93.8 | 36 | > 100 | > 100 | – | – | – | – | – | – | – | – |
| C/C=C1\CN2CCc3c([nH]c4ccccc34)C2CC1C(=O)OC (configuration not stated) | > 322 | > 322 | > 322 | > 322 | > 322 | > 322 | > 322 | > 322 | > 322 | > 322 | > 322 | – | – | – | – | – | – | – | – |
| CC(=O)C(CN(CC(C)C)CC(C)C)C(c1ccccc1)c1c(O)c2ccccc2oc1=O (configuration not stated) | > 100 | – | > 100 | > 100 | > 100 | > 100 | – | > 100 | > 100 | > 100 | > 100 | – | – | – | – | – | – | – | – |
| COc1cccc(OC)c1C(=O)OCc1ccccc1 | > 100 | > 100 | – | > 100 | – | > 100 | > 100 | > 100 | > 100 | > 100 | > 100 | – | – | – | – | – | – | – | – |
| CSc1nc2c(c(=O)[nH]1)N=C(c1ccc([N+](=O)[O-])cc1)CC(c1ccccc1)N2 (configuration not stated) | > 100 | – | 92.4 | > 100 | > 100 | > 100 | 33.2 | > 100 | 88.5 | > 100 | > 100 | > 100 | > 100 | > 100 | > 100 | – | – | – | – |
| O=C(O)c1ccc(C2COc3ccc(Cl)cc3C2)cc1 (configuration not stated) | > 100 | > 100 | > 100 | > 100 | > 100 | > 100 | > 100 | > 100 | > 100 | > 100 | > 100 | – | – | – | – | – | – | – | – |
| O=C(NC1CCCCC1NC(c1ccccc1)(c1ccccc1)c1ccccc1)C(=O)NC1CCCCC1NC(c1ccccc1)(c1ccccc1)c1ccccc1 (configuration not stated) | > 100 | > 100 | > 100 | > 100 | > 100 | > 100 | > 100 | – | > 100 | > 100 | > 100 | > 100 | > 100 | – | > 100 | 72.5 | – | – | – |
| COC(=O)[C@@H]1CC(C(C[N+](=O)[O-])c2ccc(O[Si](C)(C)C(C)(C)C)cc2)C(=O)N1C(=O)OC(C)(C)C (some centres not stated) | > 100 | – | > 100 | > 100 | > 100 | > 100 | > 100 | > 100 | > 100 | > 100 | > 100 | > 100 | – | > 100 | > 100 | > 100 | > 100 µM and 34.5 µM | > 100 µM and 26.2 µM | 12.6 µM and 35 µM |
